We go through 47 compounds from patent US20240398757A1 (COCRYSTAL PHARMA, INC., priority 2022, published 2024).

Usually IC50 stands for the concentration at which inhibition is half-maximal. A lower IC50 goes with greater potency in that assay.

Structures are written as SMILES.

The target in the assay is T1, SARS2 protease (Severe acute respiratory syndrome coronavirus 2, UniProt P0DTD1).
T1 construct: SARS2 protease was added to a final concentration of 30 nM
Put plainly: SARS-CoV-2 protease inhibition assay (SARS2 FRET protease assay). The class given is biochemical. As to conditions: IC50 (μM), SARS2 protease 30 nM, peptide substrate 1.3 μM, 120 minutes at 37° C., compounds 20 μM to 0.075 nM.
In the case of `CCCCC[C@H](NC(=O)OC(c1ccccc1)C(F)(F)c1cccc(Cl)c1)C(=O)N[C@H](C=O)C[C@@H]1CCNC1=O` (some centres unmarked) [Compound A19], the half-maximal inhibitory concentration (IC50) was found to be 7 nM.

On to `O=C[C@H](C[C@@H]1CCNC1=O)NC(=O)[C@H](CC1CCCCC1)NC(=O)OC(c1ccccc1)C(F)(F)c1cccc(Cl)c1` (some centres unmarked) [Compound A20], for which the half-inhibitory concentration (IC50) came to 0.3 nM.

As to `O=C(N[C@@H](CC1CCCCC1)C(=O)N[C@@H](C[C@@H]1CCNC1=O)C(=O)C(=O)NC1CC1)OC(c1ccccc1)C(F)(F)c1cccc(Cl)c1` (some centres unmarked) [Compound A21], inhibition was half-maximal at 60 nM (IC50).

Turning to `CCC(CC)(c1cccc(Cl)c1)C(OC(=O)N[C@@H](CC(C)C)C(=O)N[C@@H](C[C@@H]1CCNC1=O)C(=O)C(=O)NC1CC1)c1ccc(F)c(F)c1` (some centres unmarked) [Compound A22], the IC50 is 320 nM.

In turn, `CCCCCOC(=O)N[C@@H](CC(C)C)C(=O)N[C@@H](C[C@@H]1CCNC1=O)C(=O)C(=O)NC1CCCCC1` [Compound A24] returned a half-inhibitory concentration (IC50) of 21400 nM.

`CC(C)C[C@H](NC(=O)O[C@H](c1cccc(Cl)c1)C1(c2cccc(Cl)c2)CC1)C(=O)N[C@@H](C[C@@H]1CCNC1=O)C(=O)C(=O)NC1CC1` [Compound A30] came in with an IC50 of 100 nM.

With `CC(C)C[C@H](NC(=O)O[C@@H](c1cccc(Cl)c1)C1(c2cccc(Cl)c2)CC1)C(=O)N[C@@H](C[C@@H]1CCNC1=O)C(=O)C(=O)NC1CC1` [Compound A31], the IC50 amounted to 7 nM.

Compound `CCN1CCC(NC(=O)C(=O)[C@H](C[C@@H]2CCNC2=O)NC(=O)[C@H](CC(C)C)NC(=O)OC(c2ccc(F)cc2)C(CC)(CC)c2cccc(Cl)c2)CC1` (some centres unmarked) [Compound A32] registered a half-inhibitory concentration (IC50) of 10100 nM.

The compound `CCCCC[C@H](NC(=O)O[C@@H](c1ccccc1)C(F)(F)c1cccc(Cl)c1)C(=O)N[C@@H](C[C@@H]1CCNC1=O)C(=O)C(=O)NC1CC1` [Compound A33] yielded an IC50 of 300 nM.

For `CC(C)(c1cccc(F)c1)C(OC(=O)N[C@@H](CC1CCCCC1)C(=O)N[C@H](C=O)C[C@@H]1CCNC1=O)c1ccccc1` (some centres unmarked) [Compound A34], half-maximal inhibition (IC50) required 0.1 nM.

In turn, `CCC(CC)(c1cccc(Cl)c1)C(OC(=O)N[C@@H](CC(C)C)C(=O)N[C@@H](C[C@@H]1CCNC1=O)C(=O)C(=O)NC1CC1)c1cccc(Cl)c1` (some centres unmarked) [Compound A35] gave an IC50 of 1070 nM.

Regarding `CC(C)C[C@H](NC(=O)OC(c1ccc(Cl)cc1)C1(c2cccc(Cl)c2)CCCCC1)C(=O)N[C@@H](C[C@@H]1CCNC1=O)C(=O)C(=O)NC1CC1` (some centres unmarked) [Compound A36], it took 1150 nM to reach half-maximal inhibition (IC50).

In turn, `CCCC[C@H](NC(=O)OC(c1ccccc1)C(C)(C)c1cccc(F)c1)C(=O)N[C@H](C=O)C[C@@H]1CCNC1=O` (some centres unmarked) [Compound A37] returned a half-maximal inhibitory concentration (IC50) of 910 nM.

In the case of `CC(C)C[C@H](NC(=O)O[C@H](c1cccc(Cl)c1)C1(c2cccc(Cl)c2)CC1)C(=O)N[C@H](C=O)C[C@@H]1CCNC1=O` [Compound A38], half-maximal inhibition (IC50) required 3.4 nM.

`CC(C)C[C@H](NC(=O)OC(c1ccccc1)C(C)(C)c1cccc(F)c1)C(=O)NC(C)(C=O)C[C@@H]1CCNC1=O` (some centres unmarked) [Compound A39]: the IC50 is 2300 nM.

`CCCC[C@H](NC(=O)OC(c1ccccc1)C1(c2cccc(F)c2)CC1)C(=O)N[C@H](C=O)C[C@@H]1CCNC1=O` (some centres unmarked) [Compound A40]: inhibition was half-maximal at 3 nM (IC50).

In turn, `CC(C)C[C@H](NC(=O)OC(c1ccccc1)C(F)(F)c1cccc(Cl)c1)C(=O)N[C@H](C#N)C[C@@H]1CCNC1=O` (some centres unmarked) [Compound A41] displayed an IC50 of 2290 nM.

In turn, `CC(C)C[C@H](NC(=O)OC(c1ccccc1)C(C)(C)c1cccc(Cl)c1)C(=O)N[C@H](C=O)C[C@@H]1CCCNC1=O` (some centres unmarked) [Compound A42] displayed a half-maximal inhibitory concentration (IC50) of 9 nM.

In turn, `CCCC[C@H](NC(=O)OC(c1ccccc1)C(C)(C)c1cccc(F)c1)C(=O)N[C@@H](C[C@@H]1CCNC1=O)C(=O)C(=O)NC1CC1` (some centres unmarked) [Compound A43] came in with an IC50 of 260 nM.

In the case of `CCC(CC)(c1cccc(Cl)c1)C(OC(=O)N[C@@H](CC(C)C)C(=O)N[C@@H](C[C@@H]1CCNC1=O)C(=O)C(=O)NC1CC1)c1ccc(Cl)cc1` (some centres unmarked) [Compound A44], the IC50 amounted to 740 nM.

The compound `CC(C)C[C@H](NC(=O)O[C@H](c1ccc(Cl)cc1)C1(c2cccc(Cl)c2)CC1)C(=O)N[C@H](C=O)C[C@@H]1CCNC1=O` [Compound A45] returned an IC50 of 20 nM.

In turn, `CCC(CC)(c1cccc(Cl)c1)C(OC(=O)N[C@@H](CC(C)C)C(=O)N[C@H](C=O)C[C@@H]1CCNC1=O)c1ccc(Cl)cc1` (some centres unmarked) [Compound A46] yielded an IC50 of 1740 nM.

For the compound `CC(C)(c1cccc(F)c1)C(OC(=O)N[C@@H](CC1CCCCC1)C(=O)N[C@@H](C[C@@H]1CCNC1=O)C(=O)C(=O)NC1CC1)c1ccccc1` (some centres unmarked) [Compound A47], the midpoint of inhibition, the IC50, lay at 620 nM.

As for `CC(C)C[C@H](NC(=O)OC(c1ccc(Cl)cc1)C1(c2cccc(Cl)c2)CCCCC1)C(=O)N[C@H](C=O)C[C@@H]1CCNC1=O` (some centres unmarked) [Compound A49], the IC50 was found to be 380 nM.

For the compound `CCNC(=O)C(=O)[C@H](C[C@@H]1CCNC1=O)NC(=O)[C@H](CC1CCCCC1)NC(=O)OC(c1ccccc1)C(F)(F)c1cccc(Cl)c1` (some centres unmarked) [Compound A50], it took 10 nM to reach half-maximal inhibition (IC50).

For `CCCC[C@H](NC(=O)OC(c1ccccc1)C(F)(F)c1cccc(Cl)c1)C(=O)N[C@@H](C[C@@H]1CCNC1=O)C(=O)C(=O)NC1CC1` (some centres unmarked) [Compound A51], 130 nM corresponded to half-maximal inhibition (IC50).

In the case of `CC(C)C[C@H](NC(=O)OC(c1ccccc1)C1(c2cccc(Cl)c2)CCNCC1)C(=O)N[C@@H](C[C@@H]1CCNC1=O)C(=O)C(=O)NC1CC1` (some centres unmarked) [Compound A52], 1420 nM corresponded to half-maximal inhibition (IC50).

In the case of `CC(C)C[C@H](NC(=O)O[C@@H](c1cccc(Cl)c1)C1(c2cccc(Cl)c2)CCCCC1)C(=O)N[C@H](C=O)C[C@@H]1CCNC1=O` [Compound A54], the concentration for half-maximal inhibition (IC50) turned out to be 140 nM.

In turn, `CCCC[C@H](NC(=O)OC(c1ccc(F)cc1)C(F)(F)c1cccc(F)c1)C(=O)N[C@H](C=O)C[C@@H]1CCNC1=O` (some centres unmarked) [Compound A55] returned an IC50 of 10 nM.

Compound `CCCC[C@H](NC(=O)OC(c1ccccc1)C1(c2cccc(F)c2)CC1)C(=O)N[C@@H](C[C@@H]1CCNC1=O)C(=O)C(=O)NC1CC1` (some centres unmarked) [Compound A56] registered an IC50 of 560 nM.

In the case of `CC(C)C[C@H](NC(=O)OC(c1ccccc1)C(C)(C)c1cccc(Cl)c1)C(=O)N[C@@H](C[C@@H]1CCCNC1=O)C(=O)C(=O)NC1CC1` (some centres unmarked) [Compound A57], the IC50 stood at 1130 nM.

`CCCC[C@H](NC(=O)OC(c1ccc(F)cc1)C(F)(F)c1cccc(F)c1)C(=O)N[C@@H](C[C@@H]1CCNC1=O)C(=O)C(=O)NC1CC1` (some centres unmarked) [Compound A58] showed a 50% inhibitory concentration (IC50) of 160 nM.

`CC(C)C[C@H]1C(=O)N[C@H](C[C@@H]2CCNC2=O)[C@H](O)N1C(=O)OC(c1ccccc1)C1(c2cccc(Cl)c2)CCNCC1` (some centres unmarked) [Compound A59] gave a concentration for half-maximal inhibition (IC50) of 16200 nM.

For the compound `CC(C)C[C@H](NC(=O)O[C@H](c1ccc(Cl)cc1)C1(c2cccc(Cl)c2)CC1)C(=O)N[C@@H](C[C@@H]1CCNC1=O)C(=O)C(=O)NC1CC1` [Compound A60], inhibition was half-maximal at 1910 nM (IC50).

Regarding `CCCC[C@H](NC(=O)O[C@@H](c1ccccc1)C(C)(C)c1cccc(Cl)c1)C(=O)N[C@H](C=O)C[C@@H]1CCNC1=O` [Compound A61], the IC50 was < 0.1 nM.

In turn, `CCCC[C@H](NC(=O)O[C@H](c1ccccc1)C(C)(C)c1cccc(Cl)c1)C(=O)N[C@H](C=O)C[C@@H]1CCNC1=O` [Compound A62] registered a half-maximal inhibitory concentration (IC50) of 148 nM.

Consider `CCCC[C@H](NC(=O)OC(c1ccc(F)cc1)C1(c2cccc(F)c2)CC1)C(=O)N[C@H](C=O)C[C@@H]1CCNC1=O` (some centres unmarked) [Compound A64], for which 3 nM corresponded to half-maximal inhibition (IC50).

`CC(C)C[C@H](NC(=O)OC(c1cccc(Cl)c1)C1(c2cccc(Cl)c2)CCCCC1)C(=O)N[C@@H](C[C@@H]1CCNC1=O)C(=O)C(=O)NC1CC1` (some centres unmarked) [Compound A65] returned an IC50 of 571 nM.

With `CCC(CC)(c1cccc(Cl)c1)C(OC(=O)N[C@@H](CC(C)C)C(=O)N[C@H](C=O)C[C@@H]1CCNC1=O)c1cccc(Cl)c1` (some centres unmarked) [Compound A66], the IC50 amounted to 259 nM.

In turn, `O=C[C@H](C[C@@H]1CCNC1=O)NC(=O)[C@H](CC1CCCCC1)NC(=O)OC(c1ccccc1)C(F)(F)c1cccc(F)c1` (stereo partly drawn) [Compound A67, 2,2-difluoro-2-(3-fluorophenyl)-1-phenylethyl ((S)-3-cyclohexyl-1-oxo-1-(((S)-1-oxo-3-((S)-2-oxopyrrolidin-3-yl)propan-2-yl)amino)propan-2-yl)carbamate] gave an IC50 of 2 nM.

For the compound `CCCC[C@H](NC(=O)OC(c1ccccc1)C(C)(C)c1cccc(F)c1)C(=O)N[C@@H](C[C@@H]1CCNC1=O)C(=O)C(=O)NCC` (some centres unmarked) [Compound A68], the concentration for half-maximal inhibition (IC50) is 29 nM.

On to `CCCC[C@H](NC(=O)OC(c1ccc(F)cc1)C(F)(F)c1cccc(Cl)c1)C(=O)N[C@H](C=O)C[C@@H]1CCNC1=O` (some centres unmarked) [Compound A69], for which half-maximal inhibition (IC50) required 8 nM.

In the case of `CCCC[C@H](NC(=O)OC(c1ccc(F)cc1)C(F)(F)c1cccc(Cl)c1)C(=O)N[C@@H](C[C@@H]1CCNC1=O)C(=O)C(=O)NC1CC1` (some centres unmarked) [Compound A70], inhibition was half-maximal at 28 nM (IC50).

In turn, `CCCC[C@H](NC(=O)OC(c1ccc(F)cc1)C1(c2cccc(F)c2)CC1)C(=O)N[C@@H](C[C@@H]1CCNC1=O)C(=O)C(=O)NC1CC1` (some centres unmarked) [Compound A71] displayed a half-maximal inhibitory concentration (IC50) of 222 nM.

Consider `CC(C)C[C@H](NC(=O)O[C@@H](c1ccccc1)C(F)(F)c1cccc(Cl)c1)C(=O)N[C@H](C=O)C[C@@H]1CCNC1=O` [Compound A72, 2-(3-chlorophenyl)-2,2-difluoro-1-phenylethyl ((S)-4-methyl-1-oxo-1-(((S)-1-oxo-3-((S)-2-oxopyrrolidin-3-yl)propan-2-yl)amino)pentan-2-yl)carbamate], for which the concentration for half-maximal inhibition (IC50) was < 0.01 nM.

In turn, `CCCC[C@H](NC(=O)OC(c1ccccc1)C(F)(F)c1cccc(Cl)c1)C(=O)NC(CC1CC(C)(C)NC1=O)C(=O)C(=O)NC1CC1` (some centres unmarked) [Compound A73] displayed an IC50 of 1390 nM.

The compound `O=C(N[C@@H](CC1CCCCC1)C(=O)N[C@@H](C[C@@H]1CCNC1=O)C(=O)C(=O)NC1CC1)OC(c1ccccc1)C(F)(F)c1cccc(F)c1` (stereo partly drawn) [Compound A74, 2,2-difluoro-2-(3-fluorophenyl)-1-phenylethyl ((S)-3-cyclohexyl-1-(((S)-4-(cyclopropylamino)-3,4-dioxo-1-((S)-2-oxopyrrolidin-3-yl)butan-2-yl)amino)-1-oxopropan-2-yl)carbamate] gave an IC50 of 186 nM.
